We go through one compound from patent US20250042918A1, “COMPOUNDS” (Fundación Del Sector Públlco Estatal Centro Nacional De …, priority 2021, published 2025).

The subject of assay [1] is BAD S112 phosphorylation in H1299 cells overexpressing PIM-1 (H1299Pim1). Briefly: BAD S112 phosphorylation inhibition assay (in Cell ELISA). The class given is cell-based. To be noted: Homo sapiens, NCI-H1299, 4 hours, medium without FBS, read-out: BAD PH 1299PIM 1 ELIWO. How it is done:
The efficacy of the compounds of the invention on the inhibition of BAD phosphorylation was measured by an in Cell ELISA.
Materials: H1299 cells overexpressing PIM-1 (H1299Pim1). DMSO Plates: 96-well-Polystyrene, Untreated, Round-Bottom plates from Costar (Cat #3797). Cell Plates: 96-Flat bottom biocoated with Poly-D-Lysin plates with lid from Becton Dickinson (Cat #354651). Cell Culture Medium: DMEM high glucose, 10% Fetal Bovine Serum, 2 mM L-Glutamine, P/S. Antibodies: phospho BAD S112 antibody from Cell Signaling (cat. #9291S), anti-rabbit conjugated with peroxidase from Amersham (cat. #3619). Reagent: SuperSignal ELISA femto from Pierce (cat. #1001110).
Procedure: Cells were seeded in 15000 cells per 200 μl per well into 96-well plates and incubated for 16 h at 37° C., 5% CO2. On day two, nine serial 1:2 compound dilutions were made in DMSO in a 96-well plate. The compounds were added to duplicate wells in 96-well cell plates using a FX BECKMAN robot (Beckman Coulter) and were incubated at 37° C. under CO2 atmosphere in medium without fetal bovine serum (FBS). After 4 hours, relative levels of BAD S112 phosphorylation were measured in Cell ELISA using SuperSignal ELISA Femto substrate (Pierce) and read on VICTOR (Perkin Elmer). EC50 values were calculated using ActivityBase from IDBS.

The test system of assay [2] is Naïve CD4+ T cells, Th1 cells. Briefly: CD4+ T cell differentiation under Th1 conditions (IFNγ, ELISA and FACS). The class given is cell-based, mice. How it is done:
(§1) Naïve CD4^+ T cells were purified from mice spleens and lymph nodes using positive selection by magnetic beads (CD4 L3T4 Kit, Miltenyi Biotec, UK). The purified T cells were activated by plate-bound αCD3ε (1 μg/ml; 2C11) and αCD28 (3 μg/ml; 37.51) in the presence or absence of the compound of Example 1 or Cyclosporin A (Sigma Aldrich), and cultured for 72 hrs under Th1 conditions (IL-12 [20 ng/ml]+αIL-4 (11B1) [10 μg/ml]), 72 hrs under Th17 conditions (αIFNγ [10 μg/ml]+αIL-4 [5 μg/ml]+IL-6 [[…]]+TGFβ(5 ng/ml)), and 96 hrs under iTreg conditions (TGFβ (5 ng/ml)) at 37° C.
ELISA kits for mouse IFNγ and IL-17a were purchased from eBioscience (Thermo Fisher, UK) and performed in accordance to manufacturer's instructions using Corning® High Binding ELISA plates (Merck, CLS9018). All ELISAs were analysed using a Synergy MX microplate reader (BioTek).
Intracellular protein expression was evaluated by first restimulating the cells with phorbol-12-myristate 13-acetate (PMA)(10 ng/ml) (Sigma Aldrich), ionomycin (1 μg/ml) (Sigma Aldrich) and Brefeldin A (5 μg/ml) (eBioscience) for 4-6 hours at 37° C. […] Fc block (93) and all fluorescence dye labelled antibodies used αCD4 (GK1.5), αIFNγ (XMG1.2), αIL-17a (17B7), αFOXP3 (NRRF-30; FJK-16S) were purchased from eBiosciences (Thermo Fisher, UK). […]

The subject of assay [3] is Naïve CD4+ T cells, iTreg cells. As to the kind of experiment: CD4+ T cell differentiation under iTreg conditions (FoxP3, FACS). The class given is cell-based, mice. As to conditions: 12.5 nM. How it is done:
as §1
Intracellular protein expression was evaluated by first restimulating the cells with phorbol-12-myristate 13-acetate (PMA)(10 ng/ml) (Sigma Aldrich), ionomycin (1 μg/ml) (Sigma Aldrich) and Brefeldin A (5 μg/ml) (eBioscience) for 4-6 hours at 37° C. […] Fc block (93) and all fluorescence dye labelled antibodies used αCD4 (GK1.5), αIFNγ (XMG1.2), αIL-17a (17B7), αFOXP3 (NRRF-30; FJK-16S) were purchased from eBiosciences (Thermo Fisher, UK). Multi-parameter analysis was performed on an LSR/Fortessa (Becton Dickinson Biosciences (BD)) and analysed using FlowJo software (Tree Star).

For a further assay, the system named is HL-60. As to the kind of experiment: In vitro potency against leukemia cell lines (CellTiter Glo). The format is cell-based. To be noted: Homo sapiens, 72 hours, read-out: absolute IC50 HL-60. How it is done:
(§2) To prepare the complete medium FBS and appropriate additives were added according to the information sheet provided by the vendor and mixed gently. The cell name and complete medium and passage number marked on the flask were checked, and the culture medium removed and discarded using a vacuum pump. […] 3.0 ml of Trypsin-EDTA solution was added to the flask and the cells observed under an inverted microscope until cell layer is dispersed. 8.0 ml of complete growth medium was added and the cells aspirated by gently pipetting. The cell suspension was transferred to a centrifuge tube and centrifuged at 800-1000 rpm for 3-5 minutes. The supernatant was discarded using a vacuum pump, and an appropriate volume of complete medium added. The cell pellet was suspended by gently pipetting, and the cell numbers counted with Vi-cell XR and the cells adjusted to appropriate density. 100 μL of cell suspension to 96-well opaque-walled clear bottom plates was added according to the planned plate layout and the plates placed in the CO2 incubator overnight.
(§3) c. […] Meanwhile the day 0 plate was measured by Cell TiterGlo as listed below.
(§4) d. Cells were incubated with the compounds for 72 h at 5% CO2, 37° C.
(§5) The plate and its contents were equilibrated to room temperature for approximately 30 minutes, after which 100 μL of CellTiter-Glo reagent was added to the assay plate by Multidrop Combi instrument and the contents mixed for 10 minutes on an orbital shaker to induce cell lysis. The plate was allowed to incubate at room temperature for 10 minutes to stabilize luminescent signal and the clear bottom pasted with white back seal and the luminescence recorded with Enspire with the settings: Luminescence, measurement time 0.1 ms.
(§6) In all cases, the incubation time was 72 hours and the cell lines were grown as a suspension. The seeding density was […] in a 96 well plate.

Another assay has as its system Jeko-1. The description is as above. The class given is cell-based. To be noted: Homo sapiens, 72 hours, read-out: absolute IC50 JeKo-1. How it is done: as §2, §3, §4, §5, §6
Another assay relates to KG-1. The description is as above. The format is cell-based. As to conditions: Homo sapiens, 72 hours, read-out: absolute IC50 KG-1. How it is done:
as §2, §3, §4, §5, §6

The subject of a further assay is Kasumi-3. The description is as above. The class given is cell-based. As to conditions: 72 hours, read-out: absolute IC50 Kasumi-3. How it is done:
as §2, §3, §4, §5, §6

The test system of a further assay is MV-4-11. The assay is described as above. The class given is cell-based. To be noted: Homo sapiens, MV4-11; 72 hours; read-out: absolute IC50 MV-4-11. How it is done: as §2, §3, §4, §5, §6
In a further assay the test system is Molm-13. The description is as above. The format is cell-based. As to conditions: Homo sapiens, 72 hours, read-out: absolute IC50 Molm-13. How it is done: as §2, §3, §4, §5, §6
A further assay relates to OCI-M1. The assay is described as above. The format is cell-based. To be noted: 72 hours, read-out: absolute IC50 OCI-M1. How it is done: as §2, §3, §4, §5, §6

Molecules are shown by their SMILES. Where only a bound is given, the exact number is not on record here.

Regarding `CN1CCOc2c1c(N[C@H]1CC[C@@](C)(O)CC1)nn1c(-c3cccc(OC(F)(F)F)c3)nnc21` [Example 1, 1-Methyl-4-[6-methyl-3-(3-trifluoromethoxy-phenyl)-7,8-dihydro-6H-9-oxa-1,2,3a,4,6-pentaaza-cyclopenta[a]naphthalen-5-ylamino]-cyclohexanol], the EC50 in [1] turned out to be 8.3 nM. Further, in [2] (12.5 nM, 72 hrs Th1 conditions), the “pro-inflammatory Th1 responses” value is given as “significant suppression”. The “Differentiation of Th1 cells in vitro as determined by the secretion of IFNγ” value in assay [2] (across a range of concentrations, ELISA and FACS) is on record as “inhibited”. In [3], the “generation of immunoregulatory iTreg cells” value is “enhancing the generation”. In addition, the “expression of the transcription factor FoxP3” value in assay [3] (96 hrs iTreg conditions, FACS) is “significantly increased expression”. The half-maximal inhibitory concentration (IC50) came to 8750 nM in the assay with HL-60; 6540 nM in the assay on Jeko-1; 715 nM in the assay on KG-1; 232 nM in the assay on Kasumi-3; 907 nM in the assay on MV-4-11; 9340 nM in the assay with Molm-13. In addition, the IC50 in the assay with OCI-M1 was more than 10000 nM.
